Measured values reported in US8663473B2, “Digestion of biosolids in wastewater” (BCR Environmental Corporation, priority 2009, dated 2014).

Columns and labels:
[1] = tested on: Waste activated sludge (WAS); assay: WAS solubilization by chlorine dioxide: soluble COD, NH4 and PO4 release over contact time; details: for soluble COD concentration: contact time 24 h, WAS approx. 7 g/L solids
Procedure: Waste activated sludge (WAS) was obtained from a local municipal WWTP which removes cBOD only and uses a pure oxygen system. In order to achieve similar experiment conditions and be consistent with the previous pilot experiment, the solids concentration was adjusted to approximately 7 g/L. Three digesters were set up and treated with chlorine dioxide dosages of 100, 150 and 200 mg/L respectively. The digesters were operated for 24 hours. Samples were taken at time intervals of 10 min, 1 h, 6 h, 12 h and 24 h to represent different contact time.
This confirmed that chlorine dioxide contact time is the key factor for WAS solubilization. The increased soluble COD concentration can be expressed as 10-11% of TCOD which is quite significant. It was also observed that soluble COD concentration at contacting time of 6 hr was approximately 55-66% of the soluble COD at time 24 hrs. […] The increase of soluble COD corresponded to the volatile solids destruction of 4-6% with different chlorine dioxide treatment dosage.
This is considered insignificant. The PO4 increase was much higher and equaled 16 to 28.3 mg P/L after 24 h. Higher phosphorus than nitrogen release can be attributed to the chlorine dioxide treatment which breaks down the cell walls resulting in the release of unbound orthophosphate PO4—P. The nitrogen in the cells is in the form of organic nitrogen (amino acids) and enzymes are required to convert organic nitrogen to ammonia nitrogen. The low pH resulting from the chlorine dioxide treatment may have deactivated the enzyme activity, therefore no/insignificant NH4—N increase was detected.

[2] = tested on: fecal coliform bacteria; assay: Secondary sludge full-scale test: fecal coliform reduction at varying dose rates of chlorine dioxide; type: cell-based; details: for Fecal coliform: sludge, 10 minutes contact time
Procedure: Treatment of non-digested wastewater sludge with chlorine dioxide allows the material to meet Class B pathogen reduction requirements prior to digestion by reducing the fecal coliform concentrations to levels much lower than the Class B standard (<2,000,000 fecal coliform bacteria) with less than 15 minutes contact time. The resulting biosolids cake has no odor.
In this test, chlorine dioxide was generated on-site, and was injected (at varying concentrations) into a 100 gpm sludge flow passing through a 4 inch diameter pipe. The pipe length was sufficient to allow 10 minutes of contact time between the sludge and the chlorine dioxide prior to dewatering the material.

[3] = tested on: anaerobic digester; assay: Methane production in anaerobic digestion of chlorine dioxide pre-treated sludge
Procedure: Treatment of non-digested wastewater sludge with chlorine dioxide to solubilized the sludge and make nutrients bio-available and then feeding this material into an established anaerobic digester once the chlorine dioxide residual has been reduced improves gas (methane) production in an anaerobic digester. A generally accepted estimate for methane production at 35° C. is 0.25 kg methane per kg COD consumed. One kmol of methane is equivalent with a mass of 16 kg. Per definition, the COD equivalent of 1 kmol of methane is the mass of the amount of oxygen required for complete oxidation according to the formula: CH4+2O2→CO2+2H2O The mass of the 2 O2 is 2 kmol of oxygen or 64 kg. Thus 64 kg Oxygen Demand is equivalent with 16 kg of methane, or 1 kg of oxygen demand (COD) is equivalent with 16/64=0.25 kg methane.
This increase in soluble COD represents 10-11% of the total COD concentration of the sludge, and represents a 2000% increase in soluble COD. The inventors believe that the higher the s-COD the higher capacity for methane production. The resulting increase in methane production as a result of this enhancement of anaerobic digestion has been measured as a greater than 50% increase utilizing this method, and is expected to be in the range of 100% or more over non-pretreated WAS. […]

Structure (SMILES): [O][Cl+][O-] [chlorine dioxide]
- NH4 increase ([1]; all chlorine dioxide treatments): 3-5.2 mg N/L
- soluble COD concentration ([1]; chlorine dioxide dosage 100 mg/L): 913 mg/L
- soluble COD concentration ([1]; chlorine dioxide dosage 150 mg/L): 984 mg/L
- soluble COD concentration ([1]; chlorine dioxide dosage 200 mg/L): 965 mg/L
- volatile solids destruction ([1]; different chlorine dioxide treatment dosages): 4-6%
- soluble COD at contact time 6 hr as % of soluble COD at 24 hrs ([1]; dosages 100-200 mg/L): 55-66%
- increase in soluble COD ([1]; dosages 100-200 mg/L, 24 h): 2000%
- increased soluble COD expressed as % of total COD (TCOD) ([1]; dosages 100-200 mg/L, 24 h): 10-11%
- fecal coliform concentrations relative to Class B standard ([2]; non-digested wastewater sludge, less than 15 minutes contact time): < 2,000,000
- Fecal coliform ([2]; dose rate ClO2 32 mg/L): 3.32 × 10^5 MPN/g
- Fecal coliform ([2]; dose rate ClO2 48 mg/L): 123,000 MPN/g
- Fecal coliform ([2]; dose rate ClO2 64 mg/L): 1,800 MPN/g
- Fecal coliform ([2]; dose rate ClO2 80 mg/L): BDL
- Fecal coliform ([2]; dose rate ClO2 96 mg/L): BDL
- Fecal coliform ([2]; dose rate ClO2 128 mg/L): BDL
- Fecal coliform ([2]; dose rate ClO2 160 mg/L): BDL*
- expected increase in methane production ([3]; over non-pretreated WAS, expected): ≥ 100%
- increase in methane production ([3]; versus non-pretreated WAS): greater than 50%
